From patent publication US9932300B2, “N,N′-diarylurea compounds and N,N′-diarylthiourea compounds as inhibitors of translation initiation” (President and Fellows of Harvard College, priority 2009, dated 2018)
“And” between values parts separate entries of the source, which are not always exact repeats. Identical values can stand only once.

Key:
[1] = tested on: eIF2-GTP-Met-tRNAi ternary complex; test: Ternary complex / ATF-4 dual luciferase assay in human cancer cell lines co-transfected with tTA and pBISA-DL(ATF-4) (CRL-2351, PC-3, CRL-2813); format: cell-based; details: CRL-2351 cell line
Description: FIGS. 8A-8D depict that N,N′-diarylureas reduce the availability of the eIF2-GTP-Met-tRNAi ternary complex in human cancer cells. A-C) PC-3, CR-L2351, and CRL-2813 human cancer cell lines were co-transfected with pBISA-DL^(ATF-4) and ptTA plasmids. One day post-transfection, the cells were treated with the indicated concentrations of N,N′-diarylureas. Firefly/renilla ratio was determined by DLR assay 8 hours after treatment. D) PC-3, CR-L2351, and CRL-2813 human cancer cell lines were treated with the indicated concentrations of N,N′-diarylureas four 8 hours, and expression of endogenous CHOP mRNA was determined by real-time PCR.
For example, reducing amount of the ternary complex increases translation of ATF-4, which results in elevated expression of CHOP mRNA and protein. Therefore, expression of endogenous CHOP mRNA and CHOP protein in KLN-tTA/pBISA-DL^(ATF-4) cells were utilized as secondary assays to validate N,N′-diarylurea compounds as modifiers of the eIF2⋅GTP⋅Met-tRNAi ternary complex. […] To rule out the possibility that the activity of N,N′-diarylurea compounds was confined to a single cell type, the effects of these compounds on the ternary complex assay and the expression of CHOP mRNA was assayed in CRL-2351, PC-3, CRL-2813 human breast, prostate, and melanoma cancer cell lines respectively. For the reporter gene assay, the three human cell lines were co-transfected with tTA expression vector and the pBISA-DL^(ATF-4) dual luciferase expression vector shown in FIG. 6. […] The expression of CHOP mRNA was assayed by real time PCR in the same cell lines treated with 5 or 20 μM of each compound. […]
Stable and transient transfection: Cells were seeded at the density of 10^5 in 60-mm (stable transfection) or 10^4 cells per well of 96-well plate (transient transfection) plates and transfected one day later using the Qiagen Transfectamine transfection kit. For selection of stable cell lines, transfected cells were transferred to 100-mm plates and selected with appropriate antibiotics.
Dual luciferase assay: Cells or minced tumors expressing firefly and renilla luciferases were lysed and the extracts assayed with a glow type dual luciferase assay kit, per manufacturer's instruction (Promega Inc., Madison, Wis.).

[2] = tested on: eIF2-GTP-Met-tRNAi ternary complex; test: Ternary complex assay (dual luciferase, firefly/renilla ratio) in stable KLN-tTA/pBISA-DL(ATF-4) cells; HTS and hit confirmation; format: cell-based, mouse; design: Activity 10 uM / Activity 2.5 uM / Activity 5 uM: unit not given here; details: confirmed hits of the screen (Table 5); for Activity 2.5 uM: compound at 2.5 uM; for Activity 10 uM: compound at 10 uM; for Activity 5 uM: compound at 5 uM

SMILES	ATF-4 Cmax (concentration corresponding to the maximal activity) [1] [µM]	Activity 2.5 uM [2]	Activity 10 uM [2]	Activity 5 uM [2]
Cc1ccc(NC(=O)Nc2ccc(Cl)c(Cl)c2)cc1OCCN1CCNCC1 [Compound 23, 4-[2-(5-{[(3,4-dichlorophenyl)carbamoyl]amino}-2-methylphenoxy)ethyl]piperazine-1,4-diium dichloride]	10			
Cc1ccc(NC(=O)Nc2ccc(Cl)c(C(F)(F)F)c2)cc1OCCN1CCOCC1 [Compound 16, 3-[4-chloro-3-(trifluoromethyl)phenyl]-1-{4-methyl-3-[2-(morpholin-4-yl)ethoxy]phenyl}urea]	10			
Cc1ccc(NC(=O)Nc2ccc(Cl)c(C(F)(F)F)c2)cc1OCCN(C)C [Compound 12, 3-[4-chloro-3-(trifluoromethyl)phenyl]-1-{3-[2-(dimethylamino)ethoxy]-4-methylphenyl}urea]	10			
Cc1ccc(NC(=O)Nc2cc(C(F)(F)F)cc(C(F)(F)F)c2)cc1OCCN1CCNCC1 [Compound 25, 4-{2-[5-({[3,5-bis(trifluoromethyl)phenyl]carbamoyl}amino)-2-methylphenoxy]ethyl}piperazine-1,4-diium dichloride]	10			
Cc1ccc(NC(=O)Nc2ccc(Cl)c(Cl)c2)cc1OCCN(C)C [Compound 11, 3-(3,4-dichlorophenyl)-1-{3-[2-(dimethylamino)ethoxy]-4-methylphenyl}urea]	20			
Cc1ccc(NC(=O)Nc2ccc(Cl)c(C(F)(F)F)c2)cc1O [Compound 5, 3-[4-chloro-3-(trifluoromethyl)phenyl]-1-(3-hydroxy-4-methylphenyl)urea]	10			
O=C(Nc1ccc(Cl)c(C(F)(F)F)c1)Nc1ncccc1O [Compound 27]	40			
Cc1ccc(NC(=O)Nc2cc(C(F)(F)F)cc(C(F)(F)F)c2)cc1OCCN(C)C [Compound 13, 3-[3,5-bis(trifluoromethyl)phenyl]-1-{3-[2-(dimethylamino)ethoxy]-4-methylphenyl}urea]	10			
CC[Si](CC)(CC)[Si](c1ccccc1)(c1ccccc1)c1ccccc1 [Compound 131584]		0.89	7.95	
Cc1cc2c(C(C)C)c(O)c(O)c(C=Nc3cc(C(F)(F)F)ccc3Cl)c2c(O)c1-c1c(C)cc2c(C(C)C)c(O)c(O)c(C=Nc3cc(C(F)(F)F)ccc3Cl)c2c1O [Compound 52531]		0.8	5.18	
CCCCN=C(C)CC(=O)CC(=O)c1ccccc1 [Compound 406018]		1.51	4.09	
CCN1/C(=C\c2ccc3cc(C)ccc3[n+]2CC)[Se]c2ccccc21.[I-] [Compound 119675]		5.52	8.78	
COc1cccc2c1n([O-])c1cccc(=O)c-1[n+]2[O-].COc1cccc2c1n([O-])c1cccc(=O)c-1[n+]2[O-].[Cu+2] [Compound 136768]			3.271	4.668
CN(CCC(=O)/C(=C\c1ccc(Cl)cc1)c1ccccc1)Cc1ccccc1.Cl [Compound 89160]		9.22		
[Cl][Sn]([CH2][Sn]([Cl])([c]1ccccc1)[c]1ccccc1)([c]1ccccc1)[c]1ccccc1 [Compound 356110]			3.9	2.4
Cn1c2ccccc2c2nnc(N/N=C/c3ccccn3)nc21 [Compound 370589]		11.87	39.54	
N#CC(C#N)=C/C=C/C=C/c1c(Cl)cccc1Cl [Compound 170444]		0.66	12.56	
COc1ccccc1NC(=S)N/N=C(/C)c1ccccn1 [Compound 668297]		10.51	37.53	
O=C(CC(=O)Nc1ccccc1Cl)NNC(c1cc(N=Nc2ccc(Br)cc2)ccc1O)P(O)O (stereo not drawn) [Compound 659608]		1.34	3.07	
CCN(CCO)c1ccc(N=Nc2ccc([N+](=O)[O-])cc2)cc1 [Compound 57019]			5.441	5.388

SMILES	ATF-4 Cmax (concentration corresponding to the maximal activity) [1] [µM]	Activity 2.5 uM [2]	Activity 10 uM [2]	Activity 5 uM [2]
CO[C@H]1/C=C/O[C@@]2(C)Oc3c(C)c(O)c4c(O)c(c(/C=N/N5CC(C)(C)N(Cc6ccccc6)CC5(C)C)c(O)c4c3C2=O)NC(=O)/C(C)=C\C=C\[C@H](C)[C@H](O)[C@@H](C)[C@@H](O)[C@@H](C)[C@H](OC(C)=O)[C@@H]1C [Compound 208394]			13.4	1.5
CCN1/C(=C/C=C2\CCC(/C=C/c3sc4ccc(Cl)cc4[n+]3CC)=C2N(c2ccccc2)c2ccccc2)Sc2ccc(Cl)cc21.[O-][Cl+3]([O-])([O-])[O-] [Compound 290436]			20.4	3.8
Cc1ccc(-c2nc(C#N)c(C#N)nc2-c2ccc(C)cc2)cc1 [Compound 174794]			33.869	24.857
O=[N+]([O-])c1cc(Cl)ccc1NC(Nc1ccc(Cl)cc1[N+](=O)[O-])C(Cl)(Cl)Cl [Compound 130140]		0.74	19.67	
COC(=O)C1=C(C(=O)OC)C2(C)OC1c1ccccc12 (stereo not drawn) [Compound 380207]		0.47 and 0.3615		
COc1ccc(NC(=S)Nc2ccccc2S)cc1 [Compound 201570]		2.16	3.02	
O=[N+]([O-])C1=Cc2cc(Cl)ccc2OC1c1cccc2ccccc12 (stereo not drawn) [Compound 667472]		0.35	9.48	
COc1cccc2c1OC(c1ccc(C#N)cc1)C([N+](=O)[O-])=C2 (stereo not drawn) [Compound 667226]		0.34	4.79	
CC1=CC(=O)C(C(C)C)=CC1=Nc1ccc(N(C)C)cc1 [Compound 39901]		1.41	4.1	
O=C(Nc1nc2ccc(Cl)cc2[nH]1)c1ccccc1O [Compound 369110]		1.84	6.46	
COc1ccc(Nc2nnc(-c3nsc4ccccc34)s2)cc1 [Compound 652924]		1.78	3.58	
CCCCCCCCCCCCCCC[N+](C)(C)C.[Cl-] [Compound 155015]		2.19	3.73	
[Br][Sn]([Br])([CH2][Sn]([Br])([c]1ccccc1)[c]1ccccc1)[c]1ccccc1 [Compound 356111]			3.2	4.4
c1ccc(Nc2nnc(-c3ccc4c(c3)OCO4)o2)cc1 [Compound 326181]			7.027	5.584
COc1ccc(-c2nc(Nc3ccccc3)sc2Cc2sc(Nc3ccccc3)nc2-c2ccc(OC)cc2)cc1 [Compound 658163]		2.63	4.46	
CC(C)(C)c1ccc(C(=O)C[n+]2ccc(Cl)c3ccc(Cl)cc32)cc1.[Br-] [Compound 402826]		0.85	5.42	
Nc1c(Br)cc2c([nH]c(=O)c3cc(Cl)ccc32)c1Br [Compound 134404]		5.44	12.72	
C1=C(c2ccccc2)OC(c2ccccc2)=C(c2ccccc2)[P+]1(c1ccccc1)c1ccccc1.[Br-] [Compound 339567]		1.94	11.94	
COc1cc[c]([Hg][n+]2c[nH]c3[nH]cnc(=S)c32)cc1 [Compound 631943]		6.31		
COc1ccc(/C=C(\C2=NC(=O)CS2)c2nc3ccccc3[nH]2)cc1 [Compound 652047]		1.15	3.51	
